From US20250090174A1, “LEFT ATRIAL APPENDAGE CLOSURE DEVICE WITH DRUG-ELUTING COMPOSITION” (BOSTON SCIENTIFIC SCIMED, INC., priority 2023, published 2025)

System: heparinized bovine blood
Assay: In-vitro clot weight on drug coated PET fabric disks in heparinized bovine blood
Details: PVDF-HFP/drug 90/10 dip coated PET disks, 37° C., ACT about 190, FIG. 18
Method: A solution of PVDF-HFP and DOAC (direct oral anticoagulant) was prepared in 80/20 acetone/DMSO (wt/wt). The PVDF-HFP drug ratio was 90/10 (wt/wt) and the solution solids was 0.7%. […] diameter WM PET fabric disks were dip coated into the polymer/drug solution at a dip speed of […]. The coated disks were dried for […] at 125° C. in a convection oven. The drug coated disks and PVDF-HFP only control disks were placed in cups containing heparinized bovine blood adjusted to an ACT of about 190 using protamine. The cups were placed on an orbital shaker incubator at 37° C. and disks were removed at various time points and imaged. The disks were then dried and weighed to determine clot wt.

SMILES	thrombus (clot weight) compared to the PVDF-HFP coated control
O=C(NC[C@H]1CN(c2ccc(N3CCOCC3=O)cc2)C(=O)O1)c1ccc(Cl)s1 [Rivaroxaban, 5-Chloro-N-({(5S)-2-oxo-3-[4-(3-oxo-4-morpholinyl)phenyl]-1,3-oxazolidin-5-yl}methyl)-2-thiophenecarboxamide]	significantly less thrombus
COc1ccc(-n2nc(C(N)=O)c3c2C(=O)N(c2ccc(N4CCCCC4=O)cc2)CC3)cc1 [Apixaban]	significantly less thrombus
